Source: publication PMC5607274, “An iterative compound screening contest method for identifying target protein inhibitors using the tyrosine-protein kinase Yes” (Scientific Reports, 2017)

Molecular target: T1, human recombinant Yes [a.a. 2–543 (end)] (Homo sapiens, UniProt P07947)
T1 construct: human recombinant Yes [a.a; 2–543 (end)]; purchased BPS Bioscience 40488
Experiment: ADP-Glo kinase assay, inhibition rates of Yes phosphorylation activity (first and second screening)
Type: biochemical
Settings: 10 μmol L−1 compound; for First screening IR (inhibition rate): mean of n = 4 wells
Summary of the method: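 Hits from a first pass were rescreened after re-dissolution from fresh powder. The first pass reported the mean inhibition rate of quadruplicate wells per compound. Activity was that of recombinant human Yes [a.a. 2–543] kinase, read out with the ADP-Glo ADP-detection method.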

T1 sequence (P07947 2-543): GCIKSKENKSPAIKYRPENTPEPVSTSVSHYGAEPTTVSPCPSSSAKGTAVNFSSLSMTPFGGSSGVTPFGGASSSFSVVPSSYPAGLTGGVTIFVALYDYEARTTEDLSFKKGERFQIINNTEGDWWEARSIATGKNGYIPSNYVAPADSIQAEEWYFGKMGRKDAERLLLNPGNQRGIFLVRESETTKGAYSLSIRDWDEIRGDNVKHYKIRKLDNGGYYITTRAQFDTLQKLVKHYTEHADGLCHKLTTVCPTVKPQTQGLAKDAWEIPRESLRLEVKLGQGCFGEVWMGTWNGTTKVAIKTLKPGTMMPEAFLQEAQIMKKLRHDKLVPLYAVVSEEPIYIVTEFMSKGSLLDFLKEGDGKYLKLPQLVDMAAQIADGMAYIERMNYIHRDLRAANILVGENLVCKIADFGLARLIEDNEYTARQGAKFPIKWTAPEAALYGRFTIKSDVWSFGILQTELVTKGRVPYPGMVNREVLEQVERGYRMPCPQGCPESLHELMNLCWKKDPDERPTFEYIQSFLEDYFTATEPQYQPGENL

| Structure (SMILES) | First screening IR (inhibition rate) [%] | Second screening IR (inhibition rate) (second screening, dissolved from fresh powder, n = 4) [%] |
| --- | --- | --- |
| CSc1ccc(CSCc2nc(N)nc(Nc3ccc(F)cc3)n2)cc1 [Compound Z135100070] | -6 |  |
| CC(C)(C)c1ccc(OCc2nnc(SCC(=O)N3CCC(c4ccccc4)=N3)n2N)cc1 [Compound Z24578166] | 40 |  |
| CC1CCCC(NC(=S)Nc2cccc(S(=O)(=O)N(C)C)c2)C1C (stereo not shown) [Compound Z45768220] | 27 |  |
| Cc1ccc(Cn2c(=O)c3c(nc4n(-c5ccc(S(N)(=O)=O)cc5)c(C)cn34)n(C)c2=O)cc1 [Compound Z244561242] | 9 |  |
| Cc1cccc(C)c1OCc1nc2c3c(-c4ccccc4)c(-c4ccccc4)oc3ncn2n1 [Compound Z56793398] | 20 |  |
| CN(CC(=O)NCc1ccco1)C(=O)/C=C/c1ccc(-n2ccnc2)cc1 [Compound Z62804747] | 2 |  |
| C=CCN(CC(=O)Nc1ccc(S(=O)(=O)N(CC)CC)cc1)Cc1cccs1 [Compound Z89203975] | 16 |  |
| CC(C)COCCCNS(=O)(=O)CCCS(=O)(=O)N(C)C [Compound Z1702883776] | -12 |  |
| COc1ccc(C(CNC(=O)c2ccc3c(c2)NC(=O)C(C)S3)N(C)C)cc1 (stereo not shown) [Compound Z26596638] | 27 |  |
| Cc1sc2ncnc(SCC(=O)Nc3ncc(Cl)c(C)c3Cl)c2c1C [Compound Z20229401] | -1 |  |
| Cc1cc(NC(=O)/C=C/c2csc(C)n2)n(CCC#N)n1 [Compound Z826713788] | -15 |  |
| CC(C)C(NC(=O)c1ccc(S(=O)(=O)N(C)C)cc1)c1ccc2c(c1)OCCCO2 (stereo not shown) [Compound Z91218489] | 5 |  |
| Cc1cccc(N=C2NN=C(c3ccc(CCNS(C)(=O)=O)s3)CS2)c1C [Compound Z232307154] | 37 | -3 |
| Oc1cncc(/C=C/c2nc(-c3ccncc3)no2)c1 [Compound Z1739342675] | 8 |  |
| Cc1ccc2nc(-c3ccc(Nc4nnc(Cc5csc(C)n5)s4)cc3)sc2c1 [Compound Z119992430] | 40 |  |
| O=S1(=O)CCC(S(=O)(=O)NC2CCCCCC2)CC1 [Compound Z968739862] | 50 |  |

| Structure (SMILES) | First screening IR (inhibition rate) [%] | Second screening IR (inhibition rate) (second screening, dissolved from fresh powder, n = 4) [%] |
| --- | --- | --- |
| Cc1ccc(S(=O)(=O)N(C)C2(C)CCS(=O)(=O)C2)cc1 (stereo not shown) [Compound Z131022526] | 3 |  |
| Cc1cn2c(/C=C/C(=O)c3ccc(OCC(=O)N(C)C)cc3)c(C)nc2s1 [Compound Z196370782] | -2 |  |
| Cc1cc(S(=O)(=O)N(C)CC(=O)N2CCC(O)CC2)cnc1Cl [Compound Z1591866613] | -1 |  |
| Cc1cc(N(Cc2cn3ccsc3n2)C(C)C)ccc1C(N)=O [Compound Z1127155490] | -7 |  |
| COc1cc(CNC(=O)c2ccc[nH]c2=O)ccc1OCC(N)=O [Compound Z666252570] | 1 |  |
| Fc1ccccc1-c1nc(SCc2cn3ccccc3n2)n[nH]1 [Compound Z17356722] | 0 |  |
| CC1(C)CN=C(N2CCN(C(=O)c3ccc(C(N)=O)cc3)CC2)S1 [Compound Z1250701189] | 3 |  |
| Cc1cccc(C)c1OCC(O)CNc1ncnc2sc(C)c(C)c12 (stereo not shown) [Compound Z838103434] | 13 |  |
| CCN(CCNC(=O)c1[nH]c2c(c1C)C(=O)CCC2)c1cccc(C)c1 [Compound Z188949814] | -5 |  |
| Cc1ccc(C(=O)C(Sc2nnc(C3COc4ccccc4O3)n2C)c2ccc(C)cc2)cc1 (stereo not shown) [Compound Z24312958] | 0 |  |
| COC(=O)Cn1ncc2c(NCCCc3cccc(F)c3)ncnc21 [Compound Z1220626900] | -8 |  |
| FC(F)(F)c1ccnc(Nc2ccc3[nH]ncc3c2)n1 [Compound Z285702074] | 0 |  |
| Cc1nnc(SCC(=O)c2cc3cc(Cl)ccc3o2)n1C1CC1 [Compound Z98941608] | 10 |  |
| CC(C(=O)N1CCN(S(=O)(=O)c2ccccc2)CC1)N1CCC(C(N)=O)CC1 (stereo not shown) [Compound Z123938232] | 0 |  |
| O=S1(=O)CCC(SSC2CCS(=O)(=O)C2)C1 (stereo not shown) [Compound Z57056477] | 3 |  |

The remaining lines, values ahead:

| First screening IR (inhibition rate) [%] | Second screening IR (inhibition rate) (second screening, dissolved from fresh powder, n = 4) [%] | Structure (SMILES) |
| --- | --- | --- |
| 7 |  | Nc1nc(-c2ccccc2)c2cc(C(=O)c3ccccc3O)cnn12 [Compound Z199055452] |
| 4 |  | O=C(CCc1c[nH]c2ccccc12)Nc1ccc(F)c([N+](=O)[O-])c1 [Compound Z32407809] |
| 1 |  | CC(C)c1ccc(Sc2ccc(N3CCC(C(=O)O)CC3)nn2)cc1 [Compound Z1863492097] |
| 11 |  | Cc1ccc(-n2c(SCC(=O)c3ccc(NC(=O)C(C)(C)C)cc3)nnc2N2CCOCC2)cc1 [Compound Z98370329] |
| 1 |  | CN1C/C(=C/c2ccc(-n3cncn3)cc2)c2nc3ccccc3c(C(=O)O)c2C1 [Compound Z285929216] |
| -14 |  | O=C(NCc1nc(-c2ccccc2)n[nH]1)c1ccc(-c2ccccc2)cc1 [Compound Z991809296] |
| -14 |  | Cn1c(=O)[nH]c(=O)c2c1nc(N1CCN(C/C=C/c3ccccc3)CC1)n2Cc1ccc(Cl)cc1 [Compound Z246071802] |
| -2 |  | CN1C/C(=C/c2ccc(F)cc2)c2nc3ccccc3c(C(=O)O)c2C1 [Compound Z46114693] |
| -5 |  | Cc1cccc(C(C)C)c1NC(=O)CSc1nc2ccc(Cl)cc2c(=O)n1CC(C)C [Compound Z16658902] |
| -4 |  | CCCn1c(=O)c2ccccc2n2c(=S)n(CN3CCC(C(=O)Nc4cc(C)ccn4)CC3)nc12 [Compound Z573186768] |
| 3 |  | Cc1ccc(C(=O)Nc2cc(C(=O)N3CCCCC3)ccc2Cl)o1 [Compound Z1037939812] |
| 4 |  | COc1ccc(Nc2nc(-c3ccc(Cl)s3)cs2)cc1 [Compound Z48857068] |
| -35 |  | O=C(NCC(c1ccccc1Cl)N1CCCC1)C1CCN(C(=O)c2cccs2)CC1 (stereo not shown) [Compound Z87671607] |
| -1 |  | COc1ccc(Nc2nc(COC(=O)CNS(=O)(=O)c3ccc(C)c(C)c3)cs2)cc1 [Compound Z16158532] |
| 11 |  | CCCOc1ccc(OCC(=O)Nc2ccc3oc(C)nc3c2)cc1 [Compound Z70909650] |
| 1 |  | Cc1nn(C)c2ncc(NC(=O)c3cc(-c4ccco4)nc4onc(C)c34)cc12 [Compound Z239539964] |
| 3 |  | Cc1c(-c2ccc(O)cc2)nc2ccc(Cl)cc2c1-c1ccccc1F.Cl [Compound Z48955845] |
| 9 |  | CCOC(=O)c1c(-c2ccc(OC)cc2)csc1NC(=O)CN1CCN(c2cccc(OC)c2)CC1 [Compound Z46356995] |
| 0 |  | O=c1c2ccc(C(F)(F)F)cc2nc2n1CC/C2=C/c1cccnc1 [Compound Z45931417] |

| First screening IR (inhibition rate) [%] | Second screening IR (inhibition rate) (second screening, dissolved from fresh powder, n = 4) [%] | Structure (SMILES) |
| --- | --- | --- |
| 20 |  | Cc1cc(C)n(-c2ccc(Cl)c(C(=O)OCC(=O)c3ccc(F)c(F)c3)n2)n1 [Compound Z15431588] |
| -7 |  | Cc1nc(-c2ccc(CNC(=O)Cc3cccc(F)c3)o2)cs1 [Compound Z164951688] |
| 26 |  | CC1CCN(c2ccc(NC(C)C(=O)Nc3cccc([N+](=O)[O-])c3)cc2)CC1 (stereo not shown) [Compound Z132693290] |
| 3 |  | O=C(Nc1nnc(SCc2ccc(F)cc2)s1)c1cccnc1Cl [Compound Z28653555] |
| 5 |  | O=c1[nH]ncc(NCc2ccc(Cn3cnc4ccccc43)cc2)c1Cl [Compound Z951371090] |
| 9 |  | Cc1ccc(-c2cc(-c3cccc(C)c3)nc3ccccc23)cc1 [Compound Z1844441892] |
| 11 |  | c1ccc(-c2cn3nc(NCCCN4CCOCC4)sc3n2)cc1 [Compound Z300797868] |
| 50 |  | CC(=O)NCCNC(=O)c1cc(-c2ccccc2)nc2c1cnn2Cc1ccccc1Cl [Compound Z228081748] |
| 8 |  | O=C(Cc1csc(-c2ccsc2)n1)Nc1ccc2nc(N3CCOCC3)sc2c1 [Compound Z99468124] |
| 6 |  | CCn1ncc2c(C(=O)NC(C)C)cc(-c3ccccc3)nc21 [Compound Z223848612] |
| 1 |  | CCn1c(CN2CCN(C(=O)c3ccccc3)CC2)nc2cc(S(=O)(=O)N3CCOCC3)ccc21 [Compound Z46404320] |
| 13 |  | O=C(CSc1n[nH]c(-c2ccccc2)n1)N1N=C(c2ccc(Cl)cc2)CC1c1ccco1 (stereo not shown) [Compound Z25399394] |
| 7 |  | O=C(CSc1nnc(-c2ccc3c(c2)OCO3)n1-c1ccccc1)c1ccc[nH]1 [Compound Z16254229] |
| 1 |  | CN(C)c1ccc(CNC(=O)N2CCN(C3=NS(=O)(=O)c4ccccc43)CC2)cc1 [Compound Z449089632] |
| 8 |  | COc1ccccc1C(=O)Nc1ccc(Nc2nc(-c3ccccc3)c3cc(C)ccc3n2)cc1 [Compound Z111781008] |
| 1 |  | Cc1cc(N=C2C(=O)Nc3c(Cl)cc(Cl)cc32)ccc1Br [Compound Z56849070] |
| 7 |  | Cc1cc(C(=O)Nc2ccc(N3CCNC(=O)C3)c(Cl)c2)c2ccccc2n1 [Compound Z421986674] |
| 9 |  | CSc1ncccc1C(=O)OCC(=O)N1N=C(c2ccc3ccccc3c2)CC1c1ccccc1 (stereo not shown) [Compound Z18838070] |
| -14 |  | CCc1ccc(-c2cc(-c3ccccc3)c3c(n2)/C(=C\c2ccc(N(C)C)cc2)CCC3)cc1 [Compound Z56830412] |
